Source: US4495195A, “Xanthine oxidase inhibiting 3(5)-phenyl-substituted-5(3)-pyrazole-carboxylic acid derivatives, compositions, and methods of use” (Eli Lilly and Company, priority 1982, dated 1985)
Read-outs that look alike come from different tables or passages of the source.

Legend:
[1] = system: xanthine oxidase; assay: oral administration in rats, in vivo inhibition of xanthine oxidase (Table V); set-up: species or system rat
Protocol: Compounds corresponding to formulas Ia, Ib and Ic above are active in vivo in lowering plasma uric acid levels. […] The first method, the spectrofluorometric method, was modified from the precedure of Sumi et al., Clinica. Chimica. Acta., 73, 233 (1976). Rats were sacrificed by decapitation and their blood collected into vacutainer tubes containing heparin via heparinized glass funnels. The blood was centrifuged for 8 minutes at 4000 rpm after which time the plasma was separated and diluted 1:1 with water. Plasma protein was precipitated by addition of acetic acid to a final concentration of 0.007 molar and boiling the resulting mixture for 5 minutes in Sorval tubes. Clear deprotein plasma was obtained after centrifugation of the resulting plasma for 30 minutes at 25,000 rpm. Uric acid was assayed as follows: 0.2 ml. aliquots of the clear deproteinized plasma were mixed with 120 λ of uricase (0.045 mu/ml.) and incubated for 30 minutes at 27° C. 1.0 ml. of a p-hydroxyphenylacetic acid buffer was added. […] Fluoroescence of the solution was measured in quartz tubes using an Aminco Bowman-Spectrofluorimeter having excitation of 321 nm and emission at 412 nm. […]
The second method is called the HPLC-EC Detection method. […] Uric acid levels were then calculated from peak areas by computer analysis. […]

[2] = molecular target: T1, xanthine oxidase (Bos taurus, UniProt P80457); assay: in vitro xanthine oxidase assay (rate of uric acid formation from xanthine); type: biochemical
T1 construct: purchased Sigma Chemical Company, St. Louis, Missouri
T1 sequence (P80457 whole entry): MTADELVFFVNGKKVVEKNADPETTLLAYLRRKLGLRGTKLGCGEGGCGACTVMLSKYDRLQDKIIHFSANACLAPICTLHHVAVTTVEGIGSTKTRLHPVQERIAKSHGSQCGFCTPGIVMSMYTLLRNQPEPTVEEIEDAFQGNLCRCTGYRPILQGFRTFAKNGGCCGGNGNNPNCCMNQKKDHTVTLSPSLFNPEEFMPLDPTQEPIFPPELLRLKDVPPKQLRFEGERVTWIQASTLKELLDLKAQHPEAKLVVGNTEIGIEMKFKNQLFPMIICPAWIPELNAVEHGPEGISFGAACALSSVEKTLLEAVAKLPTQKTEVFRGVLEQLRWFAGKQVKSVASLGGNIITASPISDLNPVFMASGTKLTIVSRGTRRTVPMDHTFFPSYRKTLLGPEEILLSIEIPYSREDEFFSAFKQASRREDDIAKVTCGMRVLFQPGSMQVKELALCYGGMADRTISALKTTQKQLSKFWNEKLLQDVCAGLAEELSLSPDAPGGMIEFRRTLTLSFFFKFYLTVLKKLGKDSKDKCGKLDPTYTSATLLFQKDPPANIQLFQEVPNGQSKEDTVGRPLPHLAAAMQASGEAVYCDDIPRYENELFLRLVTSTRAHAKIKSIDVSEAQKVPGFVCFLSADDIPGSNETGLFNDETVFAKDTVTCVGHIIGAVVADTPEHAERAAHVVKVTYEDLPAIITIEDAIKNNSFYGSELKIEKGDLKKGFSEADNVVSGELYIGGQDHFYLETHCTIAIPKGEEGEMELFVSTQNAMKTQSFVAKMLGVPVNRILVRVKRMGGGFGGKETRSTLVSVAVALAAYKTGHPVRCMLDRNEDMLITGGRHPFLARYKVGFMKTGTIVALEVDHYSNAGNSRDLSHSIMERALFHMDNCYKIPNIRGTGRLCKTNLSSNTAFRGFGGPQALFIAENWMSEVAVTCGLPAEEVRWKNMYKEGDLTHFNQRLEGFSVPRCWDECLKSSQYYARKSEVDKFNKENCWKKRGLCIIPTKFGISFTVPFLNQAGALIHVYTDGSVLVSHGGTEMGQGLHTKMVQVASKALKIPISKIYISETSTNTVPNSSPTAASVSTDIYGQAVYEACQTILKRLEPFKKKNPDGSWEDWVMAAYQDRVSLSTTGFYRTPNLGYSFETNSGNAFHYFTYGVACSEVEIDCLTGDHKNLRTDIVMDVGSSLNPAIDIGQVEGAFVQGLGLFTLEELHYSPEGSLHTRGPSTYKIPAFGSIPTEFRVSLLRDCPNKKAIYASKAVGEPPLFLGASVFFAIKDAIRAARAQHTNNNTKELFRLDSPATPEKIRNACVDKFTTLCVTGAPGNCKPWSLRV
Protocol: Xanthine oxidase activity was measured at room temperature by the rate of uric acid formation from xanthine substrate. In a total volume of 1 ml., the incubation mixture contained 50 micromoles of potassium phosphate buffer at pH 7.4, 0.05 micromoles of xanthine and 0.01 units of enzyme preparation (chromatographically purified milk xanthine oxidase, grade III, obtained from Sigma Chemical Company, St. Louis, Missouri). The absorbence change at 292 nm was recored by a Gilford recording spectrophotometer and the uric acid formed was calculated using an extinction coefficient of 12 mM^-1 cm^-1 at 292 nm.

[3] = system: plasma level of uric acid; assay: in vivo lowering of plasma uric acid, oral, rats; conditions: Rattus norvegicus, read-out: ED50 (dose which reduces plasma level of uric acid by one-half)
Protocol: Compounds corresponding to formulas Ia, Ib and Ic above are active in vivo in lowering plasma uric acid levels. […] The first method, the spectrofluorometric method, was modified from the precedure of Sumi et al., Clinica. Chimica. Acta., 73, 233 (1976). Rats were sacrificed by decapitation and their blood collected into vacutainer tubes containing heparin via heparinized glass funnels. The blood was centrifuged for 8 minutes at 4000 rpm after which time the plasma was separated and diluted 1:1 with water. Plasma protein was precipitated by addition of acetic acid to a final concentration of 0.007 molar and boiling the resulting mixture for 5 minutes in Sorval tubes. Clear deprotein plasma was obtained after centrifugation of the resulting plasma for 30 minutes at 25,000 rpm. Uric acid was assayed as follows: 0.2 ml. aliquots of the clear deproteinized plasma were mixed with 120 λ of uricase (0.045 mu/ml.) and incubated for 30 minutes at 27° C. 1.0 ml. of a p-hydroxyphenylacetic acid buffer was added. Samples obtained from feeding rats or dogs serial doses of the compound under test were incubated with the above buffer solution for 30 minutes at 27° C. Fluoroescence of the solution was measured in quartz tubes using an Aminco Bowman-Spectrofluorimeter having excitation of 321 nm and emission at 412 nm. Five uric acid standards from 6-30 micromolar were assayed for each test and each standard yielded a linear curve.
The second method is called the HPLC-EC Detection method. In this procedure, blood plasma was collected from rats as described above and from dogs in heparinized syringes from the cefalic vein in the forearm. The blood plasma was centrifuged with Sure-Sep to separate plasma. Deproteinized plasma was prepared in each instance by first diluting one volume of plasma with one volume of an internal standard solution, 4 mcg./ml., and then addition of two volumes of 5% trichloroacetic acid. Standards were added to control plasma in the range of 0-8 mcg./ml. of uric acid. Samples obtained by feeding graded doses of the drug under test to dogs or rats were mixed for 30 seconds and then centrifuged in an Eppendorf microcentrifuge. Supernates were diluted 1:10 in column buffer and assayed for uric acid. Internal standards used were 3-methyluric acid for the rat samples and 3,9-dimethyluric acid for dog samples. Assays were performed as follows using a Bioanlaytic Systems Inc. LC-44 analyser and an electrochemical detector system based on an Altex model 110 pump coupled with a CP-O carbon paste electrodetector. […] Uric acid levels were then calculated from peak areas by computer analysis. […]

[4] = oral LD50 in mice; conditions: mouse, in vivo; for selectivity ratio: LD50 oral mice / ED50 oral rats; for LD50: oral, mice, with standard error, read-out: LD50 (dose which kills one-half of the animals)
Text: The compounds represented by the above formula are also relatively non-toxic. In column 3 of Table IV are listed the oral LD50 for mice in mg. per kg. (with standard error) for each of the compounds of column 1 (dose which kills one-half of the animals). Finally, column 4 in Table IV gives the ratio of LD50 to ED50. It will be seen that the ratio of the LD50 to the ED50 is quite high, giving a substantial margin of safety for using the compounds of formulas Ia, Ib, and Ic in treating gout in mammals, particularly humans.

[5] = milk xanthine oxidase, 0.05 micromoles xanthine in 1 ml, pH 7.4, room temperature, read-out: I50 (concentration of drug which inhibits 50% of the oxidation of xanthine to uric acid) (converted)

Row | IC50 [2, 5] | Compound | also measured
1 | – | Cn1nc(-c2cccc(C(F)(F)F)c2)cc1C(N)=O [R=NH2] | Oral Percent Inhibition ([1]; dosage 90 mg·kg): 23.5%
2 | 416 nM | Cn1nc(-c2ccc(Br)cc2)cc1C(=O)O [R=4-Br, R^1=H, 1-methyl-3-(4-bromophenyl)pyrazole-5-carboxylic acid] | –
3 | 66.5 nM | Cn1nc(-c2cccc(Br)c2)c(Cl)c1C(=O)O [R=Br, X=Cl, 1-Methyl-3-(3-bromophenyl)-4-chloropyrazole-5-carboxylic acid] | –
4 | 310 nM | COc1ccc(-c2cc(C(=O)O)n(C)n2)cc1 [R=4-OCH3, R^1=H, 1-Methyl-3-(4-methoxyphenyl)pyrazole-5-carboxylic acid] | –
5 | 304 nM | Cn1nc(-c2cccc(Cl)c2)cc1C(=O)O [R=3-Cl, R^1=H, 1-Methyl-3-(3-chlorophenyl)pyrazole-5-carboxylic acid] | –
6 | 390 nM | O=C(O)c1cc(-c2cccc(C(F)(F)F)c2)n[nH]1 [R=3-CF3, X=H, 3(5)-(3-trifluoromethylphenyl)pyrazole-5(3)-carboxylic acid] | –
7 | – | COC(=O)c1cc(-c2cccc(C(F)(F)F)c2)nn1C [R=OCH3, methyl 1-methyl-3-(3-trifluoromethylphenyl)pyrazole-5-carboxylate] | Oral Percent Inhibition ([1]; dosage 24 mg·kg): 50%
8 | 726 nM | COc1ccc(-c2n[nH]c(C(=O)O)c2O)cc1 [R=4-OMe, X=OH] | –
9 | 244 nM | COc1ccc(-c2cc(C(=O)O)n(C)n2)cc1OC [R=3-OCH3, R^1=4-OCH3, 1-Methyl-3-(3,4-dimethyoxyphenyl)pyrazole-5-carboxylic acid] | –
10 | 1580 nM | O=C(O)c1[nH]nc(-c2ccc(F)cc2)c1O [R=4-F, X=OH] | –
11 | 1690 nM | Cn1nc(-c2ccc(Cl)cc2)cc1C(=O)O [R=4-Cl, R^1=H, 1-Methyl-3-(4-chlorophenyl)pyrazole-5-carboxylic acid] | –
12 | 28 nM | Cn1nc(-c2cccc(C(F)(F)F)c2)c(O)c1C(=O)O [R=CF3, X=OH, 1-methyl-3-(3-trifluoromethylphenyl)-4-hydroxypyrazole-5-carboxylic acid] | –
13 | – | Cn1nc(-c2cccc(C(F)(F)F)c2)c(Cl)c1C(=O)O [R=CF3, X=Cl, 1-Methyl-3-(3-trifluoromethylphenyl)-4-chloropyrazole-5-carboxylic acid] | IC50 [2]: 46 nM; ED50 [3]: 8.5 mg/kg; selectivity ratio [4]: 38; LD50 [4]: 322 ± 38 mg/kg
14 | 30.2 nM | Cn1nc(-c2cccc(C(F)(F)F)c2)c(N)c1C(=O)O [R=CF3, X=NH2, 1-Methyl-3-(3-trifluoromethylphenyl)-4-aminopyrazole-5-carboxylic acid] | ED50 [3]: 23 mg/kg
15 | 177 nM | Cn1nc(-c2ccc(Cl)c(Cl)c2)cc1C(=O)O [R=3-Cl, R^1=4-Cl, 1-Methyl-3-(3,4-dichlorophenyl)pyrazole-5-carboxylic acid] | –
16 | 426 nM | Cn1nc(-c2ccc(C(F)(F)F)cc2)cc1C(=O)O [R=4-CF3, R^1=H, 1-methyl-3-(4-trifluoromethylphenyl)pyrazole-5-carboxylic acid] | –
17 | 71.1 nM | Cn1nc(-c2cccc(Br)c2)cc1C(=O)O [R=3-Br, R^1=H, 1-Methyl-3-(3-bromophenyl)pyrazole-5-carboxylic acid] | –
18 | 1390 nM | Cc1cccc(-c2cc(C(=O)O)n(C)n2)c1 [R=3-CH3, R^1=H, 1-Methyl-3-(m-tolyl)pyrazole-5-carboxylic acid] | –
19 | 44.8 nM | O=C(O)c1[nH]nc(-c2cccc(C(F)(F)F)c2)c1O [R=3-CF3, X=OH, 3(5)-(3-Trifluoromethylphenyl)-4-hydroxypyrazole-5(3)-carboxylic acid] | –

Row | Compound | IC50 [2, 5] | also measured
20 | Cn1nc(-c2cccc(C(F)(F)F)c2)cc1C(=O)O [R=3-CF3, R^1=H, 1-methyl-3-(3-trifluoromethylphenyl)pyrazole-5-carboxylic acid] | 25.9 nM | ED50 [3]: 30 mg/kg; selectivity ratio [4]: 19.5; LD50 [4]: 585 ± 45 mg/kg
21 | Cn1nc(-c2cccc(C(F)(F)F)c2)c(Br)c1C(=O)O [R=CF3, X=Br, 1-methyl-3-(3-trifluoromethylphenyl)-4-bromopyrazole-5-carboxylic acid] | 57.3 nM | ED50 [3]: 11 mg/kg; selectivity ratio [4]: 27 to 45; LD50 [4]: 300 to 500 mg/kg
